# Test results reported in EPA's ToxValDB 9.5 (doi:10.2903/j.efsa.2009.222r).
# What was measured:
# Tagia sp. = settings: acute; duration: 14 days; mortality
# Daphnia magna = settings: chronic/long-term; duration: 21 days
# Avena sativa = settings: acute; duration: 21 days; other
# Pimephales promelas = settings: chronic/long-term
# Apis mellifera = settings: acute; duration: 48 hours; dermal; mortality
# Lepomis macrochirus = settings: acute; duration: 96 hours; mortality
# Aphidius rhopalosiphi = experiment: LR50; higher = less toxic; settings: acute; duration: 48 hours; mortality
smiles,measurement,setting,value
CNC(=O)ON=C(C)SC [Methomyl],NOAEL,"Rattus norvegicus; acute, clinical chemistry",0.25 mg/kg-day
same,LD50,"Rattus norvegicus; acute, oral, mortality",27.4 mg/kg-day
same,NOAEL,"Rattus norvegicus; reproduction developmental, body weight",4.6 mg/kg-day
same,LC50,"Colinus virginianus; acute, oral, diet, mortality",> 519 mg/kg-day
same,LD50,"Colinus virginianus; acute, oral, mortality",24.2 mg/kg-day
same,NOEC,Colinus virginianus; reproduction developmental,20.3 mg/kg-day
same,LC50,Tagia sp.,19 mg/kg
same,NOEC,Daphnia magna,0.0016 mg/L
same,LEL,Avena sativa,2250 g/ha
same,NOEC,Pimephales promelas,0.073 mg/L
same,LD50,Apis mellifera,0.16 µg/piece
same,LC50,Lepomis macrochirus,0.63 mg/L
same,LR50,Aphidius rhopalosiphi,0.25 g/ha
